The values below come from US8362000B2, “Azetidinyl diamides as monoacylglycerol lipase inhibitors” (Janssen Pharmaceutica NV, priority 2009, dated 2013).

The target in test [1] is T1, purified wild type MGL (wt-MGLL 6H-11-313) (Homo sapiens, UniProt Q99685).
T1 sequence (Q99685 1-303): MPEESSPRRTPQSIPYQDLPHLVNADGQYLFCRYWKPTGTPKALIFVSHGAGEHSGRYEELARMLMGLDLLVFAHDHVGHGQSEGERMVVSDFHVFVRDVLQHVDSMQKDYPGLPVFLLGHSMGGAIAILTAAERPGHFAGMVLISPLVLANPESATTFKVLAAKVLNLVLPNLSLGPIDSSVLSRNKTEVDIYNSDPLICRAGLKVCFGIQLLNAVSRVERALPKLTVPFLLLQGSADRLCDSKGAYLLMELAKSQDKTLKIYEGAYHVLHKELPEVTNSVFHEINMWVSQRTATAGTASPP

Test [2] has as its target T2, MGL (Rattus norvegicus, UniProt Q8R431).
T2 construct: one g rat brain was homogenized using a Polytron homogenizer; from tissue; host or cells: rat brain homogenate
T2 sequence (Q8R431 1-303): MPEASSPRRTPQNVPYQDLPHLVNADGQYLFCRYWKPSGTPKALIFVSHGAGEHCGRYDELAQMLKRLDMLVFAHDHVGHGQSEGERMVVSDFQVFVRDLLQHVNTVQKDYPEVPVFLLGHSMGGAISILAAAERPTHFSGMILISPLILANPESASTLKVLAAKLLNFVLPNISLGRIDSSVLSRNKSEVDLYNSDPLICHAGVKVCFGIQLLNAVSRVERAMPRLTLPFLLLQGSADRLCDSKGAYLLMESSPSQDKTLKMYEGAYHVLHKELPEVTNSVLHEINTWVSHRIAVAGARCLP
Description: 2-AG accumulation assay in rat brain homogenate. The format is biochemical. Particulars: rat brain homogenate, 2-AG accumulation as percent of vehicle; for 2-AG accumulation, % of vehicle control at 1 µM: compound 1 μM, read-out: Rat Brain 2AG % VehCntrl (%) @ 1 μM; for 2-AG accumulation, % of vehicle control at 0.01 µM: compound 0.01 μM, read-out: Rat Brain 2AG % VehCntrl (%) @ 0.01 μM; for 2-AG accumulation, % of vehicle control at 0.1 µM: compound 0.1 μM, read-out: Rat Brain 2AG % VehCntrl (%) @ 0.1 μM; for 2-AG accumulation, % of vehicle control at 10 µM: compound 10 μM, read-out: Rat Brain 2AG % VehCntrl (%) @ 10 μM.

In test [3] the test system is CFA-induced paw radiant heat hypersensitivity. Description: CFA-induced paw radiant heat hypersensitivity. It counts as in vivo, rat. Particulars: Rattus norvegicus, po, 30 mg/kg p.o., HPβCD, last time point 180 or 300 min.
Test [4] concerns the target T3, mutant MGL (Homo sapiens, UniProt Q99685, L169S/L176S).
T3 sequence (Q99685 1-303 L169S/L176S): T1 sequence (Q99685 1-303) with L169S, L176S
In words: MGL ThermoFluor assay - mutant. The format is binding. On the technique in general: Differential scanning fluorimetry follows unfolding on heating by fluorescence.
Description: The ThermoFluor (TF) assay is a 384-well plate-based binding assay that measures thermal stability of proteins^1,2. […] TF dye used in all experiments was 1,8-ANS (Invitrogen: A-47). Final TF assay conditions used for MGL studies were 0.07 mg/ml of mutant MGL, 100 μM ANS, 200 mM NaCl, 0.001% Tween-20 in 50 mM PIPES (pH=7.0).
Screening compound plates contained 100% DMSO compound solutions at a single concentration. […] Columns 12 and 24 were used as DMSO reference and contained no compound. […] Following compound dispension, protein and dye solutions were added to achieve the final assay volume of 3 μL.
Bar-coded assay plates were robotically loaded onto a thermostatically controlled PCR-type thermal block and then heated from 40 to 90° C. degrees at a ramp-rate of 1° C./min for all experiments. Fluorescence was measured by continuous illumination with UV light (Hamamatsu LC6), supplied via fiber optics and filtered through a band-pass filter (380-400 nm; >60D cutoff). Fluorescence emission of the entire 384-well plate was detected by measuring light intensity using a CCD camera (Sensys, Roper Scientific) filtered to detect 500±25 nm, resulting in simultaneous and independent readings of all 384 wells. A single image with 20-sec exposure time was collected at each temperature, and the sum of the pixel intensity in a given area of the assay plate was recorded vs temperature and fit to standard equations to yield the Tm^1. • 1.
For some experiments, quantitative NMR spectroscopy (qNMR) was used to measure concentration of the initial 100% DMSO compound solutions and, using the same fitting method, qKd values were determined

[5] abbreviates: group mean values, read-out: CFA thermal hypersensitivity Method 1: peak % reversal.
Setting [6] is: ThermoFluor concentration-response, read-out: MGL mutant ThermoFluor Kd.
The mark [7] stands for this setting: individual animal values, read-out: CFA thermal hypersensitivity Method 2: peak % reversal.
Where [8] appears, read: ThermoFluor thermal stability binding assay, read-out: MGL mutant ThermoFluor Kd.

Each structure is given as a SMILES string. Where a chain is given by its changes, count along the chain named. Like-named read-outs stand apart in the source and are kept apart here.

With `O=C(c1ccc2c(ccn2-c2ccc(F)c(F)c2)c1)N1CC(N2CCN(C(=O)c3ccc[nH]3)CC2)C1` [Cpd 1366, 1-(3,4-Difluorophenyl)-5-({3-[4-(1H-pyrrol-2-ylcarbonyl)piperazin-1-yl]azetidin-1-yl}carbonyl)-1H-indole], the IC50 (usually the concentration needed to halve the response being measured) in test [1] is less than 5 nM. For the same molecule, the 2-AG accumulation, % of vehicle control at 1 µM in test [2] turned out to be 586%. Moreover, the inhibition in vivo at 30 mg/kg in test [3] (setting [5]) turned out to be 47.1%. Moreover, the Kd in test [4] (setting [6]) was determined as 0.012 µM.
As to `O=C(c1cscn1)N1CCN(C2CN(C(=O)c3cc4ccc(C(F)(F)F)cc4s3)C2)CC1` [Cpd 337], in test [1], the concentration for half-maximal inhibition (IC50) was determined as 13 nM. Besides, in test [2], the 2-AG accumulation, % of vehicle control at 0.01 µM was determined as 103%; the 2-AG accumulation, % of vehicle control at 0.1 µM came out at 166%; the 2-AG accumulation, % of vehicle control at 1 µM is 272%; the 2-AG accumulation, % of vehicle control at 10 µM is 671%. Also, the inhibition in vivo at 30 mg/kg in test [3] (setting [5]) amounted to 14.3%. Besides, in test [3] (setting [7]), the inhibition in vivo at 30 mg/kg turned out to be 17.6%. Further, the Kd in test [4] (setting [8]) was found to be 0.0498 µM.
`O=C(c1ccccc1)N1CCN(C2CN(C(=O)c3cc4ccc(C(F)(F)F)cc4s3)C2)CC1` [Cpd 325, 1-(Phenylcarbonyl)-4-(1-{[6-(trifluoromethyl)-1-benzothiophen-2-yl]carbonyl}azetidin-3-yl)piperazine] came in with an IC50 in test [1] of 69.5 nM. Moreover, the 2-AG accumulation, % of vehicle control at 1 µM in test [2] is 478%. Besides, the figures for the inhibition in vivo at 30 mg/kg in test [3] (setting [5]) and in test [3] (setting [7]) were 62.1% and 63.1%, respectively. The Kd in test [4] (setting [8]) came to 0.0927 µM.
`O=C(c1ccc(OCc2ccccn2)c(Cl)c1)N1CC(N2CCN(C(=O)c3nccs3)CC2)C1` [Cpd 407, 1-(1-{[3-Chloro-4-(pyridine-2-ylmethoxy)phenyl]carbon-yl}azetidin-3-yl)-4-(1,3-thiazol-2-ylcarbonyl)piperazine] showed an IC50 in test [1] of 50.6 nM. Moreover, in test [2], the 2-AG accumulation, % of vehicle control at 0.1 µM stood at 127%; the 2-AG accumulation, % of vehicle control at 1 µM stood at 441%; the 2-AG accumulation, % of vehicle control at 10 µM was found to be 743%. In test [3] (setting [5]), the inhibition in vivo at 30 mg/kg stood at 1.6%. Also, the inhibition in vivo at 30 mg/kg in test [3] (setting [7]) was 1.4%. Further, the Kd in test [4] (setting [8]) stood at 0.0988 µM.
`O=C(c1cscn1)N1CCN(C2CN(C(=O)c3sc4cc(-c5ccccc5)ccc4c3Cl)C2)CC1` [Cpd 345] showed an IC50 in test [1] of less than 5 nM. In addition, the 2-AG accumulation, % of vehicle control at 1 µM in test [2] is 744%. Besides, the inhibition in vivo at 30 mg/kg came out at 25% in test [3] (setting [5]) and 26.3% in test [3] (setting [7]). In addition, the Kd in test [4] (setting [8]) came out at 0.0031 µM.
Take `O=C(c1nccs1)N1CCN(C2CN(C(=O)c3sc4cc(C(F)(F)F)ccc4c3Cl)C2)CC1` [Cpd 324, 1-(1-{[3-Chloro-6-(trifluoromethyl)-1-benzothiophen-2-yl]carbon-yl}azetidin-3-yl)-4-(1,3-thiazol-2-ylcarbonyl)piperazine]: the IC50 in test [1] was less than 5 nM. In test [2], the 2-AG accumulation, % of vehicle control at 0.1 µM stood at 941%. For the same molecule, the inhibition in vivo at 30 mg/kg in test [3] (setting [5]) stood at 48.7%; in test [3] (setting [7]) it was 55.8%. Also, in test [4] (setting [8]), the Kd amounted to 0.0004 µM.
Take `O=C(c1ccc(-c2ccccc2)cc1)N1CC(N2CCN(C(=O)c3cscn3)CC2)C1` [Cpd 7, 1-[1-(Biphenyl-4-ylcarbonyl)azetidin-3-yl]-4-(1,3-thiazol-4-ylcarbonyl)piperazine]: the IC50 in test [1] came to 131 nM. Moreover, in test [2], the 2-AG accumulation, % of vehicle control at 0.1 µM came to 216%; the 2-AG accumulation, % of vehicle control at 1 µM was found to be 238%; the 2-AG accumulation, % of vehicle control at 10 µM came out at 568%. For the same molecule, the inhibition in vivo at 30 mg/kg in test [3] (setting [5]) amounted to 77.8%. Moreover, in test [3] (setting [7]), the inhibition in vivo at 30 mg/kg was found to be 76.2%. Also, the Kd in test [4] (setting [6]) is 0.0466 µM.
As for `O=C(c1nccs1)N1CCN(C2CN(C(=O)c3sc4cc(C(F)(F)F)c(F)cc4c3Cl)C2)CC1` [Cpd 900], in test [1], the IC50 was less than 5 nM. In addition, the 2-AG accumulation, % of vehicle control at 1 µM in test [2] is 543%. In addition, the inhibition in vivo at 30 mg/kg in test [3] (setting [5]) amounted to 8.5%. Also, the Kd in test [4] (setting [8]) was 0.001 µM; in test [4] (ThermoFluor, compound concentration measured by qNMR, read-out: MGL mutant ThermoFluor qKd (μM) (using qNMR conc.)), 0.001 µM.
Turning to `O=C(c1cscn1)N1CCN(C2CN(C(=O)c3sc4cc(Br)ccc4c3Cl)C2)CC1` [Cpd 333, 1-{1-[(6-Bromo-3-chloro-1-benzothiophen-2-yl)carbonyl]azetidin-3-yl}-4-(1,3-thiazol-4-ylcarbonyl)piperazine], in test [1], the IC50 was 16.2 nM. In addition, in test [2], the 2-AG accumulation, % of vehicle control at 1 µM is 291%. The inhibition in vivo at 30 mg/kg in test [3] (setting [5]) was 27.7%. The Kd in test [4] (setting [8]) is 0.0039 µM.
Consider `O=C(c1ccc(-c2cccc(C(F)(F)F)c2)cc1)N1CC(N2CCN(C(=O)c3cscn3)CC2)C1` [Cpd 229, 1-(1,3-Thiazol-4-ylcarbonyl)-4-(1-{[3′-(trifluoromethyl)biphenyl-4-yl]carbonyl}azetidin-3-yl)piperazine], for which the IC50 in test [1] was less than 5 nM. Also, in test [2], the 2-AG accumulation, % of vehicle control at 0.1 µM came to 276% and the 2-AG accumulation, % of vehicle control at 1 µM was 552%. In addition, the inhibition in vivo at 30 mg/kg in test [3] (setting [5]) stood at 55.8%. In addition, the inhibition in vivo at 30 mg/kg in test [3] (setting [7]) came out at 56.6%. Besides, the Kd in test [4] (setting [8]) came to 0.0125 µM.
The molecule `Cc1c(C(=O)N2CC(N3CCN(C(=O)c4cscn4)CC3)C2)sc2cc(C(F)(F)F)ccc12` [Cpd 674, 1-(1-{[3-Methyl-6-(trifluoromethyl)-1-benzothiophen-2-yl]carbonyl}azetidin-3-yl)-4-(1,3-thiazol-4-ylcarbonyl)piperazine] showed an IC50 in test [1] of 19 nM. In test [2], the 2-AG accumulation, % of vehicle control at 1 µM came out at 891%. The inhibition in vivo at 30 mg/kg in test [3] (setting [5]) turned out to be 57.7%. The Kd in test [4] (setting [6]) was 0.003 µM.
Regarding `O=C(c1cscn1)N1CCN(C2CN(C(=O)c3ccc(-c4cccc(C(F)(F)F)c4)cc3Cl)C2)CC1` [Cpd 251, 1-(1-{[3-Chloro-3′-(trifluoromethyl)biphenyl-4-yl]carbonyl}azetidin-3-yl)-4-(1,3-thiazol-4-ylcarbonyl)piperazine], in test [1], the half-maximal inhibitory concentration (IC50) is 17 nM. Moreover, in test [2], the 2-AG accumulation, % of vehicle control at 0.1 µM was 144%; the 2-AG accumulation, % of vehicle control at 1 µM amounted to 586%; the 2-AG accumulation, % of vehicle control at 10 µM stood at 791%. The inhibition in vivo at 30 mg/kg in test [3] (setting [5]) was 35.1%. Besides, in test [3] (setting [7]), the inhibition in vivo at 30 mg/kg was 38.5%. In addition, the Kd in test [4] (setting [8]) was 0.0143 µM.
Molecule `Cc1cc(-c2cccc(C(F)(F)F)c2)ccc1C(=O)N1CC(N2CCN(C(=O)c3cscn3)CC2)C1` [Cpd 240, 1-(1-{[3-Methyl-3′-(trifluoromethyl)biphenyl-4-yl]carbonyl}azetidin-3-yl)-4-(1,3-thiazol-4-ylcarbonyl)piperazine] had an IC50 in test [1] of 50.8 nM. Moreover, in test [2], the 2-AG accumulation, % of vehicle control at 0.1 µM was found to be 184%; the 2-AG accumulation, % of vehicle control at 1 µM was 538%; the 2-AG accumulation, % of vehicle control at 10 µM is 639%. The inhibition in vivo at 30 mg/kg in test [3] (setting [5]) came to 43%. The inhibition in vivo at 30 mg/kg in test [3] (setting [7]) turned out to be 44.4%. Besides, the Kd in test [4] (setting [8]) was 0.0232 µM.
In turn, `O=C(c1ccccc1)N1CCN(C2CN(C(=O)c3ccc(-c4ccccc4)cc3)C2)CC1` [Cpd 5, 1-[1-(Biphenyl-4-ylcarbonyl)azetidin-3-yl]-4-(phenylcarbonyl)piperazine] came in with an IC50 in test [1] of 523 nM. In test [2], the 2-AG accumulation, % of vehicle control at 0.01 µM stood at 122%; the 2-AG accumulation, % of vehicle control at 0.1 µM came out at 123%; the 2-AG accumulation, % of vehicle control at 1 µM came out at 156%; the 2-AG accumulation, % of vehicle control at 10 µM is 279%. In test [3] (setting [5]), the inhibition in vivo at 30 mg/kg was determined as 96.6%. For the same molecule, the inhibition in vivo at 30 mg/kg in test [3] (setting [7]) was determined as 100%. The Kd in test [4] (setting [6]) is 0.0548 µM.
`O=C(c1ccc(-c2cccc(C(F)(F)F)c2)c(F)c1)N1CC(N2CCN(C(=O)c3cscn3)CC2)C1` [Cpd 1070, 1-(1-{[2-Fluoro-3′-(trifluoromethyl)biphenyl-4-yl]carbonyl}azetidin-3-yl)-4-(1,3-thiazol-4-ylcarbonyl)piperazine] registered an IC50 in test [1] of 8 nM. Further, in test [2], the 2-AG accumulation, % of vehicle control at 1 µM was found to be 551%. Moreover, the figures for the inhibition in vivo at 30 mg/kg in test [3] (setting [5]) and in test [3] (setting [7]) were 25.7% and 23.1%, respectively. Besides, the Kd in test [4] (setting [8]) was determined as 0.006 µM.
